# Reference: US7183257B2, “Use of RPL41 to treat infections and inhibit cancer” (priority 2004, dated 2007)
# Peptide text beside a SMILES is read from it. * marks the point of attachment. Cbz = O=C(OCc1ccccc1)*; CH2F = FC*
# Assays:
# [1] = tested on: five tumor cell lines (HTB72, CRL1435, CRL5800, HCT116, MCF7); assay: Caspase inhibitor z-VAD.fmk with RPL41 (morphology and Δψm assays); format: cell-based; settings: Z-VAD.fmk 50 μM with RPL41 6.7 μM, 8 hours
# Protocol: FIG. 10—RPL41 induced cell death is caspase independent. […].
# . The cell death induced by RPL41, therefore, is likely to be caspase-independent. A broad-spectrum caspase inhibitor z-VAD.fmk was also incubated with five tumor cell lines, in the presence of RPL41, to determine whether the inhibition of caspases will attenuate RPL41 induced cell death. […]
# [2] = tested on: 24 tumor cell lines of various tissue types (ATCC); format: cell-based
# [3] = Isoelectric point of peptide; format: physicochemical
molecule,measurement,setting,value
COC(=O)C[C@H](NC(=O)[C@H](C)NC(=O)[C@@H](NC(=O)OCc1ccccc1)C(C)C)C(=O)CF [z-VAD.fmk] (Cbz-Val-Ala-Asp(OMe)-CH2F),suppression of RPL41 induced cell death,[1],failed to suppress the RPL41 induced cell death
MLISSGLKDGIRSGI [control peptide unrelated to RPL41],effect on tumor cell growth,[2]; concentration ten times higher than that of RPL41,no effect on tumor cell growth
same,pI,[3],8.5
NH2-KARMRMKRKLRKRMRKRQRSRKWKR-OH (H-KARMRMKRKLRKRMRKRQRSRKWKR-OH),inhibition effect on tumor cell growth after pre-treatment of peptide with proteases,"[2]; peptides pre-treated with proteases (DIGEST-ALL, Zymed)",completely abolished
